molecular target: T1, Recombinant human liver GK1 (GST-GK) (Homo sapiens, UniProt P35557); assay: In vitro glucokinase activity (G6PDH-coupled NADH assay); format: biochemical; settings: 30° C., 5 mM D-glucose, 10% DMSO
T1 construct: made in house; host or cells: E. coli
T1 sequence (P35557 1-466 isoform P35557-2): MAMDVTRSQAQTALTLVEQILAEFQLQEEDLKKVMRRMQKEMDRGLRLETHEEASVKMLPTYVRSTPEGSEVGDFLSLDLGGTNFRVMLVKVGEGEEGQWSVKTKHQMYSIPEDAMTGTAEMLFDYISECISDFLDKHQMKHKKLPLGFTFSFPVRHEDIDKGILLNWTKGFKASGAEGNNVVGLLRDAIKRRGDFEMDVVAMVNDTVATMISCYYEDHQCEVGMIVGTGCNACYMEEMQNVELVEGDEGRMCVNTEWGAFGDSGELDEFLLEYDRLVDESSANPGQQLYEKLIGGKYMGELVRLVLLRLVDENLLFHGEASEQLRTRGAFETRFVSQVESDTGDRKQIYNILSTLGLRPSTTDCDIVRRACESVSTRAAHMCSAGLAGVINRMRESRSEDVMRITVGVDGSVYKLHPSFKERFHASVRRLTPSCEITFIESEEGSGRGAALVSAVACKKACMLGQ
How it was run: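 Activation measured as the rate of OD340 rise from G6PDH-coupled NADH production, relative to 10% DMSO control, reported as SC1.5 (concentration for 50% activity increase). Conditions: 30° C, pH 7.1 Hepes, 5 mM glucose, 1 mM ATP, purified recombinant GST-human GK1, compound preincubated 10 min before enzyme addition.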

| Compound | SC1.5 (concentration of activator that produced a 50% increase in the activity of GK) |
| --- | --- |
| Cc1cccc(OC2=CC(=O)N([C@@H](CC(C)C)C(=O)Nc3ccn(CCO[Si](C)(C)C(C)(C)C)n3)C2)c1F [Example 132, (S)-2-[4-(2-Fluoro-3-methyl-phenoxy)-2-oxo-2,5-dihydro-pyrrol-1-yl]-4-methyl-pentanoic acid {1-[2-(t-butyl-dimethyl-silanyloxy)-ethyl]-1H-pyrazol-3-yl}-amide] | 0.577 µM |
| Cc1cccc(OC2=CC(=O)N([C@@H](CC(C)C)C(=O)Nc3ccn(CCO)n3)C2)c1F [Example 133, (S)-2-[4-(2-Fluoro-3-methyl-phenoxy)-2-oxo-2,5-dihydro-pyrrol-1-yl]-4-methyl-pentanoic acid [1-(2-hydroxy-ethyl)-1H-pyrazol-3-yl]-amide] | 0.249 µM |
| CC(C)C[C@@H](C(=O)Nc1ccn(C[C@@H](O)CO)n1)N1CC(Oc2c(F)ccc(OC(C)C)c2F)=CC1=O [Example 134, (S)-2-[4-(2,6-Difluoro-3-isopropoxy-phenoxy)-2-oxo-2,5-dihydro-pyrrol-1-yl]-4-methyl-pentanoic acid [1-((R)-2,3-dihydroxy-propyl)-1H-pyrazol-3-yl]-amide] | 0.069 µM |
| CC(C)C[C@@H](C(=O)Nc1ccn(C[C@@H]2COC(C)(C)O2)n1)N1CC(Oc2ccccc2Br)=CC1=O [Example 136, (S)-2-[4-(2-Bromo-phenoxy)-2-oxo-2,5-dihydro-pyrrol-1-yl]-4-methyl-pentanoic acid [1-((R)-2,2-dimethyl-[1,3]dioxolan-4-yl-methyl)-1H-pyrazol-3-yl]-amide] | 2.013 µM |
| CC(C)C[C@@H](C(=O)Nc1ccn(CC(C)(C)O)n1)N1CC(Oc2cccc(C#N)c2)=CC1=O [Example 138, (S)-2-[4-(3-Cyano-phenoxy)-2-oxo-2,5-dihydro-pyrrol-1-yl]-4-methyl-pentanoic acid [1-(2-hydroxy-2-methyl-propyl)-1H-pyrazol-3-yl]-amide] | 3.733 µM |
| CC(C)C[C@@H](C(=O)Nc1ccn(C[C@@H](O)CO)n1)N1CC(Oc2cccc(N(C)C)c2F)=CC1=O.Cl [Example 140, (S)-2-[4-(3-Dimethylamino-2-fluoro-phenoxy)-2-oxo-2,5-dihydro-pyrrol-1-yl]-4-methyl-pentanoic acid [1-((R)-2,3-dihydroxy-propyl)-1H-pyrazol-3-yl]-amide hydrochloride] | 0.37 µM |
| CCOC(=O)Cn1ccc(NC(=O)[C@H](CC(C)C)N2CC(Oc3cccc(C4CC4)c3F)=CC2=O)n1 [Example 148, (3-{(S)-2-[4-(3-Cyclopropyl-2-fluoro-phenoxy)-2-oxo-2,5-dihydro-pyrrol-1-yl]-4-methyl-pentanoylamino}-pyrazol-1-yl)-acetic acid ethyl ester] | 0.21 µM |
| CC(C)C[C@@H](C(=O)Nc1ccn(CC(=O)O)n1)N1CC(Oc2cccc(C3CC3)c2F)=CC1=O [Example 149, (3-{(S)-2-[4-(3-Cyclopropyl-2-fluoro-phenoxy)-2-oxo-2,5-dihydro-pyrrol-1-yl]-4-methyl-pentanoylamino}-pyrazol-1-yl)-acetic acid] | 1.196 µM |
| CCOc1cccc(OC2=CC(=O)N([C@@H](CC(C)C)C(=O)Nc3cnc([C@H]4COC(C)(C)O4)cn3)C2)c1F [Example 150, (S)-2-[4-(3-Ethoxy-2-fluoro-phenoxy)-2-oxo-2,5-dihydro-pyrrol-1-yl]-4-methyl-pentanoic acid [5-((S)-2,2-dimethyl-[1,3]dioxolan-4-yl)-pyrazin-2-yl]-amide] | 0.2 µM |
| CCOc1cccc(OC2=CC(=O)N([C@@H](CC(C)C)C(=O)Nc3cnc([C@H](O)CO)cn3)C2)c1F [Example 151, (S)-2-[4-(3-Ethoxy-2-fluoro-phenoxy)-2-oxo-2,5-dihydro-pyrrol-1-yl]-4-methyl-pentanoic acid [5-((S)-1,2-dihydroxy-ethyl)-pyrazin-2-yl]-amide] | 0.063 µM |
| CCOc1ccc(F)c(OC2=CC(=O)N([C@@H](CC(C)C)C(=O)Nc3cnc([C@H]4COC(C)(C)O4)cn3)C2)c1F [Example 152, (S)-2-[4-(3-Ethoxy-2,6-difluoro-phenoxy)-2-oxo-2,5-dihydro-pyrrol-1-yl]-4-methyl-pentanoic acid [5-((S)-2,2-dimethyl-[1,3]dioxolan-4-yl)-pyrazin-2-yl]-amide] | 0.566 µM |

Other lines, results leading:

| SC1.5 (concentration of activator that produced a 50% increase in the activity of GK) | Compound |
| --- | --- |
| 0.066 µM | CC(C)C[C@@H](C(=O)Nc1ccn(CC(C)(C)O)n1)N1CC(Oc2c(F)ccc(OC(C)C)c2F)=CC1=O [Example 135, (S)-2-[4-(2,6-Difluoro-3-isopropoxy-phenoxy)-2-oxo-2,5-dihydro-pyrrol-1-yl]-4-methyl-pentanoic acid [1-(2-hydroxy-2-methyl-propyl)-1H-pyrazol-3-yl]-amide] |
| 0.26 µM | CC(C)C[C@@H](C(=O)Nc1ccn(C[C@@H](O)CO)n1)N1CC(Oc2ccccc2Br)=CC1=O [Example 137, (S)-2-[4-(2-Bromo-phenoxy)-2-oxo-2,5-dihydro-pyrrol-1-yl]-4-methyl-pentanoic acid [1-((R)-2,3-dihydroxy-propyl)-1H-pyrazol-3-yl]-amide] |
| 0.796 µM | CC(C)C[C@@H](C(=O)Nc1ccn(C[C@@H]2COC(C)(C)O2)n1)N1CC(Oc2cccc(N(C)C)c2F)=CC1=O [Example 139, (S)-2-[4-(3-Dimethylamino-2-fluoro-phenoxy)-2-oxo-2,5-dihydro-pyrrol-1-yl]-4-methyl-pentanoic acid [1-((R)-2,2-dimethyl-[1,3]dioxolan-4-yl-methyl)-1H-pyrazol-3-yl]-amide] |
| 0.516 µM | CC(C)C[C@@H](C(=O)Nc1ccn(C[C@@H]2COC(C)(C)O2)n1)N1CC(Oc2cccc(N3CCCC3)c2F)=CC1=O [Example 141, (S)-2-[4-(2-Fluoro-3-pyrrolidin-1-yl-phenoxy)-2-oxo-2,5-dihydro-pyrrol-1-yl]-4-methyl-pentanoic acid [1-((R)-2,2-dimethyl-[1,3]dioxolan-4-yl-methyl)-1H-pyrazol-3-yl]-amide] |
| 0.234 µM | CC(C)C[C@@H](C(=O)Nc1ccn(C[C@@H](O)CO)n1)N1CC(Oc2cccc(N3CCCC3)c2F)=CC1=O [Example 142, (S)-2-[4-(2-Fluoro-3-pyrrolidin-1-yl-phenoxy)-2-oxo-2,5-dihydro-pyrrol-1-yl]-4-methyl-pentanoic acid [1-((R)-2,3-dihydroxy-propyl)-1H-pyrazol-3-yl]-amide] |
| 2.089 µM | CC(C)C[C@@H](C(=O)Nc1ccn(C)n1)N1CC(Oc2cccc(C(C)(C)O)c2F)=CC1=O [Example 143, (S)-2-{4-[2-Fluoro-3-(1-hydroxy-1-methyl-ethyl)-phenoxy]-2-oxo-2,5-dihydro-pyrrol-1-yl}-4-methyl-pentanoic acid (1-methyl-1H-pyrazol-3-yl)-amide] |
| 0.251 µM | C=Cc1cccc(OC2=CC(=O)N([C@@H](CC(C)C)C(=O)Nc3ccn(C[C@@H]4COC(C)(C)O4)n3)C2)c1F [Example 144, (S)-2-[4-(2-Fluoro-3-vinyl-phenoxy)-2-oxo-2,5-dihydro-pyrrol-1-yl]-4-methyl-pentanoic acid [1-((R)-2,2-dimethyl-[1,3]dioxolan-4-yl-methyl)-1H-pyrazol-3-yl]-amide] |
| 0.134 µM | C=Cc1cccc(OC2=CC(=O)N([C@@H](CC(C)C)C(=O)Nc3ccn(C[C@@H](O)CO)n3)C2)c1F [Example 145, (S)-2-[4-(2-Fluoro-3-vinyl-phenoxy)-2-oxo-2,5-dihydro-pyrrol-1-yl]-4-methyl-pentanoic acid [1-((R)-2,3-dihydroxy-propyl)-1H-pyrazol-3-yl]-amide] |
| 0.21 µM | CC(C)C[C@@H](C(=O)Nc1ccn(C[C@@H]2COC(C)(C)O2)n1)N1CC(Oc2cccc(C3CC3)c2F)=CC1=O [Example 146, (S)-2-[4-(3-Cyclopropyl-2-fluoro-phenoxy)-2-oxo-2,5-dihydro-pyrrol-1-yl]-4-methyl-pentanoic acid [1-((R)-2,2-dimethyl-[1,3]dioxolan-4-yl-methyl)-1H-pyrazol-3-yl]-amide] |
| 0.105 µM | CC(C)C[C@@H](C(=O)Nc1ccn(C[C@@H](O)CO)n1)N1CC(Oc2cccc(C3CC3)c2F)=CC1=O [Example 147, (S)-2-[4-(3-Cyclopropyl-2-fluoro-phenoxy)-2-oxo-2,5-dihydro-pyrrol-1-yl]-4-methyl-pentanoic acid [1-((R)-2,3-dihydroxy-propyl)-1H-pyrazol-3-yl]-amide] |

— US7741327B2 (Hoffmann-La Roche Inc., priority 2008, dated 2010)
